From patent US8735650B2, “Methods of modulating production of phenylpropanoid compounds in plants” (Yissum Research Development Company of the Hebrew …, priority 2007, dated 2014)

Experiments:
[1] = system: control petunia flowers; test: Phe feeding, volatile emission by dynamic headspace GC-MS; assay type: in vivo, Petunia hybrida; details: during the night
Experimental: (§1) Volatiles emitted from detached petunia flowers were collected using an adsorbent trap consisting of a glass tube containing 200 mg of polymer Porapak Type Q (80/100 mesh; Alltech, Deerfield, Ill.) held in place with plugs of silanized glass wool (Guterman et al., 2006). Trapped volatiles were eluted using 3 ml hexane, and 2 μg iso-butylbenzene was added per sample as an internal standard for each. To determine pool sizes of volatile compounds, limbs were ground in liquid nitrogen and extracted in hexane (4 ml g^−1 of tissue) containing 0.5 μg ml^−1 iso-butylbenzene as the internal standard. Following overnight incubation with shaking at 150 rpm, extract was centrifuged at 10,500 g for 10 min and the supernatant filtered through a 25-ml syringe with a […] sterile nylon filter. To assess whether the bound form of benzaldehyde accumulated in petunia limbs, tissue (0.6 g) was incubated with 9 ml phosphate citrate buffer pH 4.5 with or without 15 units of glucosidase mixture Novarom G (Novo Nordisk Ferment Ltd., Bagsvaerd, Denmark) at 37° C. overnight, and then transferred to −20° C. to stop enzymatic reactions. Hexane (10 ml) containing 0.5 μg ml^−1 iso-butylbenzene as an internal standard was added to each sample, and following vortexing, the upper phase was recovered.
(§2) GC-MS analysis was performed using a device composed of a Pa1 auto-sampler (CTC Analytic, Zwingen, Switzerland), a TRACE GC 2000 equipped with an Rtx-5SIL MS (Restek, i.d. 0.25 μm, 30 m×0.25 mm) fused-silica capillary column, and a TRACE DSQ quadrupole mass spectrometer (ThermoFinnigan, Hemel, UK). Helium was used as the carrier gas at a flow rate of 0.9 ml min^−1. The injection temperature was set to 250° C. (splitless mode), the interface to 280° C., and the ion source adjusted to 200° C. The analysis was performed under the following temperature program: 5 min of isothermal heating at 50° C., followed by a 5° C. min^−1 oven temperature ramp to […], and a final increase from 250 to 280° C. at 10° C. min^−1. The transfer line temperature was 280° C. The system was equilibrated for 1 min at 70° C. before injection of the next sample. Mass spectra were recorded at 2 scan s^−1 with a scanning range of 40 to 450 mass-to-charge ratio, and an electron energy of 70 eV. Compounds were tentatively identified (>95% match) based on NIST/EPA/NIH Mass Spectral Library (Data Version: NIST 05, Software Version 2.0d) using the XCALIBUR v1.3 program (ThermoFinnigan) library. Further identification of compounds was based on comparison of mass spectra and retention times with those of authentic standards (Sigma, Milwaukee, Wis.) analyzed under similar conditions.
(§3) For evaluating the affect of Phe feeding on volatile production, control and Pap1-transgenic flowers were collected at 0800 hour and 1600 hour, placed in a glass vial containing 10 ml of water with or without 5 mg L-phenylalanine (Duchefa, Haarlem, Netherlands) and headspace was collected during the day (0800-1600 hours) and night (1600-0800 hours). To assess internal pools of volatiles, control and Pap1-transgenic flowers collected at 1600 hour were placed in a glass vial containing 10 ml of water with or without L-phenylalanine and at 2300 hour volatile were extracted as above.

[2] = system: Pap1-transgenic petunia flowers; test: as above; assay type: in vivo, Petunia hybrida
Experimental: as §1, §2, §3

[3] = Phe fed vs non-fed Pap1-transgenic flowers, during the day

For `N[C@@H](Cc1ccccc1)C(=O)O` [Phe, L-phenylalanine], the “reduction in benzaldehyde emission” value [1] was 2-3 fold, the “reduction in methylbenzoate emission” value [1] was 2-3 fold and the “volatile accumulation and emission” value ([2]; Pap1-transgenic flowers, Phe feeding during the night) was “unaffected”. For the same compound, the “increase in benzaldehyde emission” value [2, 3] was “about 7 fold” and the “increase in methylbenzoate emission” value [2, 3] was ~5 fold.
